Assay results reported in US20020028807A1, “Non-nucleoside reverse transcriptase inhibitors” (priority 2000, published 2002).

Legend:
[1] = tested on: HIV coding for mutant reverse transcriptase K103N/P225H; assay: ELISA (p24) assay of HIV replication in C8166 cell culture, K103N/P225H virus; type: cell-based, HIV-1; conditions: Human immunodeficiency virus 1, C8166, 72 h, read-out: EC50 K103N/P225H
Protocol: (§1) Compounds of the invention were tested for their ability to inhibit HIV replication in cell culture in a 96-well plate assay. Complete RPMI 1640, consisting of RPMI 1640+10% fetal bovine serum, 10 μg/ml gentamycin and 10 μM β-mercaptoethanol was used for dilution of the compound as well as cell growth medium. The T lymphocyte cell line C8166 was infected at a multiplicity of infection of 0.001 with viruses coding for wild-type and mutant reverse transcriptase. Cells were then incubated for three days in the presence of serial dilutions of the compounds of the invention. The supernatant was pooled from eight replica wells and the concentration of extracellular p24 was determined using a commercially available HIV-1 p24 antigen assay kit (Beckman-Coulter®). The level of inhibition (% inhibition) was calculated with the following equation: [formula]

HIV-1 RT K103N/Y181C = target: T1, HIV-1 RT K103N/Y181C (Human immunodeficiency virus type 1 group M subtype B, UniProt P03366, K702N/Y780C); assay: Reverse transcriptase (RT) assay, K103N/Y181C mutant; type: biochemical
T1 construct: an HIV RT clone pKRT2 containing only the RT p66 gene regulated by the lac operon/trc promoter; made in house; host or cells: E. coli JM109, vector pKK233-2
Source text: (§2) Among the enzymes for which Human Immunodeficiency Virus (HIV-1) encodes is a reverse transcriptase (1), so-named because it transcribes a DNA copy from an RNA template. This activity can be quantitatively measured in a cell-free enzyme assay and is based upon the observation that reverse transcriptase is able to use a synthetic template poly r(C) primed with a biotinylated oligo d(G) to transcribe a radio-labelled DNA strand utilising 3H-dGTP as a substrate. The assay described below utilises the wild-type enzyme (which is the predominant form of the enzyme observed in patients infected with HIV-1) and can also be used with mutant RT enzymes (for example, Y181C, prepared by site-directed mutagenesis in which the tyrosine residue at codon 181 has been replaced by a cysteine residue) in analogous assay conditions. This assay allows compounds to be evaluated for their effectiveness at inhibiting the mutant enzymes.
(§3) Some HIV-1 IIIB clone BH10 RT mutants were provided by Dr. C.-K. Shih (Boehringer Ingelheim Pharmaceutials Inc., U.S.A.) in the vector pKK233-2 (Pharmacia). Briefly an HIV RT clone pKRT2 containing only the RT p66 gene regulated by the lac operon/trc promoter was obtained from Dr. W. Summers (Yale University) (2). A variety of specific amino acid substitutions were introduced into the wild-type RT gene by site-directed mutagenesis. RT clones were subcloned into the pKK233-2 bacterial expression vector. Clones provided included wild-type, Val106Ala, Tyr181Cys, Tyr188Cys, Tyr188Leu, Gly190Ala and Pro236Leu. Others were made in-house by site-directed mutagenesis of the pKK233-2 RT clones including Lys103Asn, Lys103Asn/Tyr181Cys, Lys103Asn/Leu100Ile, Lys103Asn/Pro225His, and Lys103Asn/Val108Ile.
(§4) Purification of recombinant reverse transcriptase was performed using a combination of methods previously described (3). A single colony from a fresh plate of transformed JM109 cells was used to initiate growth of a pre-culture grown o/n at 37° C. Two liters of growth medium were inoculated with this pre-culture. At OD600˜1.5 (5-6 h at 37° C.), RT gene expression was induced with IPTG (1 mM final), and the fermentation was continued for a few more hours at 37° C. After centrifugation, supernatants were discarded while cell pellets were pooled and stored at −80° C. until purification. Cells were thawed at 4° C. overnight and suspended in lysis buffer (MES 50 mM pH 6, EDTA 1 mM, 10% v/v glyerol, 0.02% w/v OBG, 0.02% w/v sodium azide). Lysozyme was added and the mixture was incubated on ice for 40 minutes. After homogenization using a bounce in presence of lysozyme and sonication, the cells were centrifuged for 30 minutes. Supernatant (S1) was saved and stored at 4° C. The centrifuged pellet was resuspended in extraction buffer (MES 50 mM pH 6, KPO4 50 mM pH 6, KCl 100 mM, 10% v/v glycerol, 0.02% w/v OBG, 0.02% w/v sodium axide) and stirred for 30 minutes at 4° C. This second mixture was centrifuged again and the supernatant (S2) was saved. The above procedure was repeated 2 more times saving supernatants S3 and S4 and one last extraction was performed overnight (S5). Polymin P (0.005% final) was added to the combined supernatants to remove nucleic acids. This solution was stirred for 75 minutes at 4° C. and centrifuged for 1 h. The supernatant (SS1) was precipitated on ice with 20% w/v ammonium sulfate and stirred for 1 h at 4° C. The mixture was then centrifuged and the resulting supernatant (SS2) was precipitated with additional 40% w/v ammonium sulfate (60% total), stirred for 1 h and centrifuged again. The final pellet (P1) was stored overnight at 4° C. before undergoing purification the following day. All steps of the purification were performed at 4° C. unless otherwise stated.
(§5) Pellet (P1) was resuspended into MES 50 mM pH 6, KPO4 10 mM pH 6, KCl 100 mM, 10% v/v glycerol, 0.02% w/v OBG, 0.02% w/v sodium azide. The suspension was dialysis against the same buffer overnight using 12-14 kD MWCO dialysis tubing. […]

HIV-1 RT Y188L = target: T2, HIV-1 RT Y188L (Human immunodeficiency virus type 1 group M subtype B, UniProt P03366, Y787L); assay: Reverse transcriptase (RT) assay, Y188L mutant; type: biochemical
T2 construct: an HIV RT clone pKRT2 containing only the RT p66 gene regulated by the lac operon/trc promoter; made in house; host or cells: E. coli JM109, vector pKK233-2
Source text: as §2, §3, §4, §5

HIV-1 RT K103N/V108I = target: T3, HIV-1 RT K103N/V108I (Human immunodeficiency virus type 1 group M subtype B, UniProt P03366, K702N/V707I); assay: Reverse transcriptase (RT) assay, K103N/V108I mutant; type: biochemical
T3 construct: an HIV RT clone pKRT2 containing only the RT p66 gene regulated by the lac operon/trc promoter; made in house; host or cells: E. coli JM109, vector pKK233-2
Source text: as §2, §3, §4, §5

HIV-1 RT Y181C = target: T4, HIV-1 RT Y181C (Human immunodeficiency virus type 1 group M subtype B, UniProt P03366, Y780C); assay: Reverse transcriptase (RT) assay, Y181C mutant; type: biochemical
T4 construct: an HIV RT clone pKRT2 containing only the RT p66 gene regulated by the lac operon/trc promoter; made in house; host or cells: E. coli JM109, vector pKK233-2
Source text: as §2, §3, §4, §5

HIV-1 RT wild-type (WT) = target: T5, HIV-1 RT wild-type (WT) (Human immunodeficiency virus type 1 group M subtype B, UniProt P03366); assay: Reverse transcriptase (RT) assay, wild-type enzyme; type: biochemical
T5 construct: an HIV RT clone pKRT2 containing only the RT p66 gene regulated by the lac operon/trc promoter; made in house; host or cells: E. coli JM109, vector pKK233-2
Source text: as §2, §3, §4, §5

[2] = tested on: HIV coding for mutant reverse transcriptase Y181C; assay: ELISA (p24) assay of HIV replication in C8166 cell culture, Y181C virus; type: cell-based, HIV-1; conditions: Human immunodeficiency virus 1, C8166, 72 h, read-out: EC50 Y181C
Protocol: as §1

HIV-1 RT K103N = target: T6, HIV-1 RT K103N (Human immunodeficiency virus type 1 group M subtype B, UniProt P03366, K702N); assay: Reverse transcriptase (RT) assay, K103N mutant; type: biochemical
T6 construct: an HIV RT clone pKRT2 containing only the RT p66 gene regulated by the lac operon/trc promoter; made in house; host or cells: E. coli JM109, vector pKK233-2
Source text: as §2, §3, §4, §5

[3] = tested on: HIV coding for wild-type reverse transcriptase (WT RT); assay: ELISA (p24) assay of HIV replication in C8166 cell culture, wild-type RT virus; type: cell-based, HIV-1; conditions: Human immunodeficiency virus 1, C8166, 72 h, read-out: EC50 WT RT
Protocol: as §1

HIV-1 RT K103N/P225H = target: T7, HIV-1 RT K103N/P225H (Human immunodeficiency virus type 1 group M subtype B, UniProt P03366, K702N/P824H); assay: Reverse transcriptase (RT) assay, K103N/P225H mutant; type: biochemical
T7 construct: an HIV RT clone pKRT2 containing only the RT p66 gene regulated by the lac operon/trc promoter; made in house; host or cells: E. coli JM109, vector pKK233-2
Source text: as §2, §3, §4, §5

[4] = tested on: HIV coding for mutant reverse transcriptase K103N/V108I; assay: ELISA (p24) assay of HIV replication in C8166 cell culture, K103N/V108I virus; type: cell-based, HIV-1; conditions: Human immunodeficiency virus 1, C8166, 72 h, read-out: EC50 K103N/V108I
Protocol: as §1

[5] = tested on: HIV coding for mutant reverse transcriptase K103N/L100I; assay: ELISA (p24) assay of HIV replication in C8166 cell culture, K103N/L100I virus; type: cell-based, HIV-1; conditions: Human immunodeficiency virus 1, C8166, 72 h, read-out: EC50 K103N/L100I
Protocol: as §1

[6] = tested on: HIV coding for mutant reverse transcriptase V106A; assay: ELISA (p24) assay of HIV replication in C8166 cell culture, V106A virus; type: cell-based, HIV-1; conditions: Human immunodeficiency virus 1, C8166, 72 h, read-out: EC50 V106A
Protocol: as §1

HIV-1 RT K103N/L100I = target: T8, HIV-1 RT K103N/L100I (Human immunodeficiency virus type 1 group M subtype B, UniProt P03366, K702N/L699I); assay: Reverse transcriptase (RT) assay, K103N/L100I mutant; type: biochemical
T8 construct: an HIV RT clone pKRT2 containing only the RT p66 gene regulated by the lac operon/trc promoter; made in house; host or cells: E. coli JM109, vector pKK233-2
Source text: as §2, §3, §4, §5

HIV-1 RT V106A = target: T9, HIV-1 RT V106A (Human immunodeficiency virus type 1 group M subtype B, UniProt P03366, V705A); assay: Reverse transcriptase (RT) assay, V106A mutant; type: biochemical
T9 construct: an HIV RT clone pKRT2 containing only the RT p66 gene regulated by the lac operon/trc promoter; made in house; host or cells: E. coli JM109, vector pKK233-2
Source text: as §2, §3, §4, §5

[7] = tested on: HIV coding for mutant reverse transcriptase K103N; assay: ELISA (p24) assay of HIV replication in C8166 cell culture, K103N virus; type: cell-based, HIV-1; conditions: Human immunodeficiency virus 1, C8166, 72 h, read-out: EC50 K103N
Protocol: as §1

`CCN1c2ncc(CCOc3cc[n+]([O-])c4ccccc34)cc2C(=O)Nc2c(C)ccnc21` [compound 12, 5,11-Dihydro-11-ethyl-4-methyl-8-{2-{(1-oxido-4-quinolinyl)oxy}ethyl}-6H-dipyrido[3,2-b:2′,3′-e][1,4]diazepin-6-one] gave an EC50 [1] of 0.0015 µM, an IC50 (HIV-1 RT K103N/Y181C) of 0.212 µM and an IC50 (HIV-1 RT Y188L) greater than 10 µM. For the same molecule, the IC50 (HIV-1 RT K103N/V108I) was 0.075 µM, the IC50 (HIV-1 RT Y181C) was 0.038 µM and the IC50 (HIV-1 RT wild-type (WT)) was 0.012 µM. For the same molecule, the EC50 [2] was 0.0027 µM, the IC50 (HIV-1 RT K103N) was 0.031 µM and the EC50 [3] was 0.00026 µM. For the same molecule, the IC50 (HIV-1 RT K103N/P225H) was 0.038 µM, the EC50 [4] was 0.005 µM and the EC50 [5] was 0.0029 µM. The EC50 [6] was 0.0124 µM, the IC50 (HIV-1 RT K103N/L100I) was 0.124 µM and the IC50 (HIV-1 RT V106A) was 0.121 µM. For the same molecule, the EC50 [7] was 0.0028 µM.
